Laboratory results reported in ChEMBL document CHEMBL4507265 (2021).

How the values were obtained:
[1] = biological target: Interleukin-1 receptor-associated kinase 1 (Homo sapiens) (UniProt P51617); conditions: Compound concentration 1000.0 nM
[2] = biological target: Cyclin-G-associated kinase (Homo sapiens) (UniProt O14976); conditions: Compound concentration 1000.0 nM
[3] = biological target: Ephrin type-A receptor 1 (Homo sapiens) (UniProt P21709); conditions: Compound concentration 1000.0 nM
[4] = system: Receptor-type tyrosine-protein kinase FLT3 (Homo sapiens), P36888 [UNDEFINED MUTATION]; conditions: Compound concentration 1000.0 nM
[5] = biological target: SRSF protein kinase 1 (Homo sapiens) (UniProt Q96SB4); conditions: Compound concentration 1000.0 nM
[6] = biological target: Histamine H4 receptor (Homo sapiens) (UniProt Q9H3N8); conditions: Compound concentration 10.0 uM
[7] = biological target: Homeodomain-interacting protein kinase 3 (Homo sapiens) (UniProt Q9H422); conditions: Compound concentration 1000.0 nM
[8] = biological target: Receptor tyrosine-protein kinase erbB-3 (Homo sapiens) (UniProt P21860); conditions: Compound concentration 1000.0 nM
[9] = biological target: Membrane-associated tyrosine- and threonine-specific cdc2-inhibitory kinase (Homo sapiens) (UniProt Q99640); conditions: Compound concentration 1000.0 nM
[10] = biological target: Mast/stem cell growth factor receptor Kit (Homo sapiens) (UniProt P10721); conditions: Compound concentration 1000.0 nM
[11] = biological target: Cyclin-dependent kinase 15 (Homo sapiens) (UniProt Q96Q40); conditions: Compound concentration 1000.0 nM
[12] = biological target: Mitogen-activated protein kinase kinase kinase 15 (Homo sapiens) (UniProt Q6ZN16); conditions: Compound concentration 1000.0 nM
[13] = biological target: Muscarinic acetylcholine receptor M3 (Homo sapiens) (UniProt P20309); conditions: Compound concentration 10.0 uM
[14] = biological target: Tyrosine-protein kinase HCK (Homo sapiens) (UniProt P08631); conditions: Compound concentration 1000.0 nM
Chain of Tyrosine-protein kinase HCK (Homo sapiens) (P08631 2-526 limits assumed): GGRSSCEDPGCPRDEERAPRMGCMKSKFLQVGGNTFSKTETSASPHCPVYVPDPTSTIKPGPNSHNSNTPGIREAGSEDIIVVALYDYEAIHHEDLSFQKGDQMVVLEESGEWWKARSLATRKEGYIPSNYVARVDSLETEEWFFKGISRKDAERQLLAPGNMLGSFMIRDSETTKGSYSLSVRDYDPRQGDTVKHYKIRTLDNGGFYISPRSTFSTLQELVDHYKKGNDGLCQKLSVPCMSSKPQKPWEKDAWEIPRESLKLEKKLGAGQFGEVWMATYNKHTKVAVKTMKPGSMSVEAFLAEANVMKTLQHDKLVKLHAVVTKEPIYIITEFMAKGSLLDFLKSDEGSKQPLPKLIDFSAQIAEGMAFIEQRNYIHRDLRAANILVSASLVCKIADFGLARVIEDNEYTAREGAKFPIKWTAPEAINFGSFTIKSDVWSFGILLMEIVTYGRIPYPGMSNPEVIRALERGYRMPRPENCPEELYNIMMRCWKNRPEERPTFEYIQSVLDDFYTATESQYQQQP

[15] = biological target: cAMP-dependent protein kinase catalytic subunit PRKX (Homo sapiens) (UniProt P51817); conditions: Compound concentration 1000.0 nM
Chain of cAMP-dependent protein kinase catalytic subunit PRKX (Homo sapiens) (P51817 whole entry): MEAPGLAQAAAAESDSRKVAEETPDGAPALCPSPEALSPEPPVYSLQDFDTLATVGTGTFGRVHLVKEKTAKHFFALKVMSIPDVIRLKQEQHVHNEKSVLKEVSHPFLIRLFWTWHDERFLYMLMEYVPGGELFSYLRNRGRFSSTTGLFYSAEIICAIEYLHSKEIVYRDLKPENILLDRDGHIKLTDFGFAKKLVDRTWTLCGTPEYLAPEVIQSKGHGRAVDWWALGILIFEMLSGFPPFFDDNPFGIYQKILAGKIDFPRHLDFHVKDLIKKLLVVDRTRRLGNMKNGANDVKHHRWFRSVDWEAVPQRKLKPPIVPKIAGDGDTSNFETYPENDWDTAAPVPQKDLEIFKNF

[16] = biological target: Receptor-interacting serine/threonine-protein kinase 1 (Homo sapiens) (UniProt Q13546); conditions: Compound concentration 1000.0 nM
Chain of Receptor-interacting serine/threonine-protein kinase 1 (Homo sapiens) (Q13546 whole entry): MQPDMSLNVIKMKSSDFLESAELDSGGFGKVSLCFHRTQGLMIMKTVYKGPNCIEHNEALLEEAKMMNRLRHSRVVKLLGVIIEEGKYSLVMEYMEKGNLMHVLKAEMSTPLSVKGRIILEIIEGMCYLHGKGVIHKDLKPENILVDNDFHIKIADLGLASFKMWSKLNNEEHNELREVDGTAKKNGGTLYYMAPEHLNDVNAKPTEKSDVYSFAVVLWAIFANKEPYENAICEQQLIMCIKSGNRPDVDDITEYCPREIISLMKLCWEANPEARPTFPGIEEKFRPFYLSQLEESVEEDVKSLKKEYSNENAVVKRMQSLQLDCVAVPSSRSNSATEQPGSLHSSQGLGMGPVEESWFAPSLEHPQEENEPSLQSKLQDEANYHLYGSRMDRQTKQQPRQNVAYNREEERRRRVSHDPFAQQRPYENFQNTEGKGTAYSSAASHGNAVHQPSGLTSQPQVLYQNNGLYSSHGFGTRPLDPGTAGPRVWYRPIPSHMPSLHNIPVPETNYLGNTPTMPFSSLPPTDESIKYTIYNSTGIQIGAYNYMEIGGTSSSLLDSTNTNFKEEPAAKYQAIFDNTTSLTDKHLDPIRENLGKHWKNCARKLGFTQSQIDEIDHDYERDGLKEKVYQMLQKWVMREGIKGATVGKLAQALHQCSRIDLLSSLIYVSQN

[17] = biological target: Protein-tyrosine kinase 2-beta (Homo sapiens) (UniProt Q14289); conditions: Compound concentration 1000.0 nM
[18] = biological target: Tyrosine-protein kinase Lyn (Homo sapiens) (UniProt P07948); conditions: Compound concentration 1000.0 nM
[19] = biological target: Mitogen-activated protein kinase kinase kinase 10 (Homo sapiens) (UniProt Q02779); conditions: Compound concentration 1000.0 nM
Chain of Mitogen-activated protein kinase kinase kinase 10 (Homo sapiens) (Q02779 whole entry, looked up): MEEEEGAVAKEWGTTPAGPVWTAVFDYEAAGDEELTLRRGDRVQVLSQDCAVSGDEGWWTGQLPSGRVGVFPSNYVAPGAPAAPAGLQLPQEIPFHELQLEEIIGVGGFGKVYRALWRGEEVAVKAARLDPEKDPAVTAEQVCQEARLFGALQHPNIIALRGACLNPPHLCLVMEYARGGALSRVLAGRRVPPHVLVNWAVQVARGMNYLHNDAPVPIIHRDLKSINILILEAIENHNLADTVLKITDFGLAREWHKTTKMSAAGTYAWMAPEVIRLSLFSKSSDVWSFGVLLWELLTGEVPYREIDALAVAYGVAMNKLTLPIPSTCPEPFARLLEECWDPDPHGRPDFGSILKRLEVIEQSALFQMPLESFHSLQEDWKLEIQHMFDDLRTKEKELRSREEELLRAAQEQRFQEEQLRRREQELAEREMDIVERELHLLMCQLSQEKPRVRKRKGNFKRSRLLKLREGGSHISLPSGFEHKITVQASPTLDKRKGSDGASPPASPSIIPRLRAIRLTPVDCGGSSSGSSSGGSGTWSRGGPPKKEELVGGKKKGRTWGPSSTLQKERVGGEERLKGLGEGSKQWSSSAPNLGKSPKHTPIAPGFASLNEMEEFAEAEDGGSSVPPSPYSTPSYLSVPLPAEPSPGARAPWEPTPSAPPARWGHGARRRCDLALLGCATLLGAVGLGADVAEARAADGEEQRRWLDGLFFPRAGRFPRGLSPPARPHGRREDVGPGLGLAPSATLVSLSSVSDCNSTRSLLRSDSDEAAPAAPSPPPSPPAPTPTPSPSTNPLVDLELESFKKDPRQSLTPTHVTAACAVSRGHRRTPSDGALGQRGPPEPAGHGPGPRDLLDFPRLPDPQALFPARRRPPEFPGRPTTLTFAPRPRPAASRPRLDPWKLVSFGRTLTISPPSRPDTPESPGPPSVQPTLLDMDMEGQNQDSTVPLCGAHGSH

[20] = biological target: Serine/threonine-protein kinase 24 (Homo sapiens) (UniProt Q9Y6E0); conditions: Compound concentration 1000.0 nM
[21] = biological target: Casein kinase II subunit alpha (Homo sapiens) (UniProt P68400); conditions: Compound concentration 1000.0 nM
[22] = biological target: Serine/threonine-protein kinase PAK 1 (Homo sapiens) (UniProt Q13153); conditions: Compound concentration 1000.0 nM
[23] = biological target: Serine/threonine-protein kinase VRK2 (Homo sapiens) (UniProt Q86Y07); conditions: Compound concentration 1000.0 nM
[24] = biological target: Serine/threonine-protein kinase SBK1 (Homo sapiens) (UniProt Q52WX2); conditions: Compound concentration 1000.0 nM
[25] = biological target: Phosphatidylinositol 4,5-bisphosphate 3-kinase catalytic subunit beta isoform (Homo sapiens) (UniProt P42338); conditions: Compound concentration 1000.0 nM
[26] = biological target: Cyclin-dependent kinase 9 (Homo sapiens) (UniProt P50750); conditions: Compound concentration 1000.0 nM
[27] = system: Tyrosine-protein kinase ABL1 (Homo sapiens), P00519 [H396P]; conditions: Compound concentration 1000.0 nM
[28] = biological target: Insulin receptor (Homo sapiens) (UniProt P06213); conditions: Compound concentration 1000.0 nM
[29] = biological target: Serine/threonine-protein kinase PLK4 (Homo sapiens) (UniProt O00444); conditions: Compound concentration 1000.0 nM
[30] = biological target: Bone morphogenetic protein receptor type-2 (Homo sapiens) (UniProt Q13873); conditions: Compound concentration 1000.0 nM
[31] = biological target: NUAK family SNF1-like kinase 1 (Homo sapiens) (UniProt O60285); conditions: Compound concentration 1000.0 nM
Chain of NUAK family SNF1-like kinase 1 (Homo sapiens) (O60285 whole entry): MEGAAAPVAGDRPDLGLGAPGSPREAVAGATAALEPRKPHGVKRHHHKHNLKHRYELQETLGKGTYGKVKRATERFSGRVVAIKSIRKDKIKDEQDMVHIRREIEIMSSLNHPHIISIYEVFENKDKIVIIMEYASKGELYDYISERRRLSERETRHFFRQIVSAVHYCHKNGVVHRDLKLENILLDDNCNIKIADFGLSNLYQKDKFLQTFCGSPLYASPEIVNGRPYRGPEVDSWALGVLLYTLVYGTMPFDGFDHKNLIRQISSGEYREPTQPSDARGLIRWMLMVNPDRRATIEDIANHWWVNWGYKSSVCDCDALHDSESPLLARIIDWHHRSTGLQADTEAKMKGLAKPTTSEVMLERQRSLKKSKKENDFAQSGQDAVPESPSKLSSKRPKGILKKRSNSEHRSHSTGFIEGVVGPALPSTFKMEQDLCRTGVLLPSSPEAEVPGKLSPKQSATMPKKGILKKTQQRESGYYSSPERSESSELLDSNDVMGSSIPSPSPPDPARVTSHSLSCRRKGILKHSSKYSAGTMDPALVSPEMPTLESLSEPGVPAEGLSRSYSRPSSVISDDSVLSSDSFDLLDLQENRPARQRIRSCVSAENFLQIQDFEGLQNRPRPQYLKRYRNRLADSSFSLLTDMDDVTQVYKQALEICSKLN

[32] = biological target: Calcium/calmodulin-dependent protein kinase kinase 2 (Homo sapiens) (UniProt Q96RR4); conditions: Compound concentration 1000.0 nM
Chain of Calcium/calmodulin-dependent protein kinase kinase 2 (Homo sapiens) (Q96RR4 2-588 limits assumed): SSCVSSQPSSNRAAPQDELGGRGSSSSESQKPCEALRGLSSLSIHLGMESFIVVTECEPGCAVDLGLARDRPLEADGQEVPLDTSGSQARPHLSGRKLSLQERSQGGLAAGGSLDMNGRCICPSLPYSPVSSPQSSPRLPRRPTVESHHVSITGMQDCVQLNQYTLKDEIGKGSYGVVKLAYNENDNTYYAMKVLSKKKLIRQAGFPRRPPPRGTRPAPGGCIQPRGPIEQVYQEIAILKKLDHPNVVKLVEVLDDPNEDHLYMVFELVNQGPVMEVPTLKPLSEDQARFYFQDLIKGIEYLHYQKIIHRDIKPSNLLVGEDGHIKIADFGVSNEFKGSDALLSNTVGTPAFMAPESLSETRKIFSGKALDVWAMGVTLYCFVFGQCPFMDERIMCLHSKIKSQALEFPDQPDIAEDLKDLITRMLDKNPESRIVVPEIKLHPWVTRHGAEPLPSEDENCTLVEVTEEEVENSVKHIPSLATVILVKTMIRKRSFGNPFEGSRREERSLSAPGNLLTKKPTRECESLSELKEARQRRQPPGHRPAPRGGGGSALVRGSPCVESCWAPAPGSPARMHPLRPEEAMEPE

[33] = biological target: Serine/threonine-protein kinase PAK 4 (Homo sapiens) (UniProt O96013); conditions: Compound concentration 1000.0 nM
[34] = biological target: Leukocyte tyrosine kinase receptor (Homo sapiens) (UniProt P29376); conditions: Compound concentration 1000.0 nM
[35] = biological target: Calcium/calmodulin-dependent protein kinase type II subunit gamma (Homo sapiens) (UniProt Q13555); conditions: Compound concentration 1000.0 nM
[36] = biological target: Tyrosine-protein kinase ITK/TSK (Homo sapiens) (UniProt Q08881); conditions: Compound concentration 1000.0 nM
[37] = biological target: Serine/threonine-protein kinase mTOR (Homo sapiens) (UniProt P42345); conditions: Compound concentration 1000.0 nM
[38] = system: Epidermal growth factor receptor (Homo sapiens), P00533 [L858R]; conditions: Compound concentration 1000.0 nM
[39] = system: Tyrosine-protein kinase ABL1 (Homo sapiens), P00519 [F317L]; conditions: Compound concentration 1000.0 nM
[40] = system: Phosphatidylinositol 4,5-bisphosphate 3-kinase catalytic subunit alpha isoform (Homo sapiens), P42336 [C420R]; conditions: Compound concentration 1000.0 nM
[41] = biological target: Calcium/calmodulin-dependent protein kinase type 1G (Homo sapiens) (UniProt Q96NX5); conditions: Compound concentration 1000.0 nM
[42] = biological target: Mitogen-activated protein kinase kinase kinase 1 (Homo sapiens) (UniProt Q13233); conditions: Compound concentration 1000.0 nM
[43] = biological target: Death-associated protein kinase 2 (Homo sapiens) (UniProt Q9UIK4); conditions: Compound concentration 1000.0 nM
[44] = biological target: Homeodomain-interacting protein kinase 2 (Homo sapiens) (UniProt Q9H2X6); conditions: Compound concentration 1000.0 nM
[45] = biological target: Receptor-interacting serine/threonine-protein kinase 2 (Homo sapiens) (UniProt O43353); conditions: Compound concentration 1000.0 nM

Chain of Cyclin-G-associated kinase (Homo sapiens) (O14976 whole entry): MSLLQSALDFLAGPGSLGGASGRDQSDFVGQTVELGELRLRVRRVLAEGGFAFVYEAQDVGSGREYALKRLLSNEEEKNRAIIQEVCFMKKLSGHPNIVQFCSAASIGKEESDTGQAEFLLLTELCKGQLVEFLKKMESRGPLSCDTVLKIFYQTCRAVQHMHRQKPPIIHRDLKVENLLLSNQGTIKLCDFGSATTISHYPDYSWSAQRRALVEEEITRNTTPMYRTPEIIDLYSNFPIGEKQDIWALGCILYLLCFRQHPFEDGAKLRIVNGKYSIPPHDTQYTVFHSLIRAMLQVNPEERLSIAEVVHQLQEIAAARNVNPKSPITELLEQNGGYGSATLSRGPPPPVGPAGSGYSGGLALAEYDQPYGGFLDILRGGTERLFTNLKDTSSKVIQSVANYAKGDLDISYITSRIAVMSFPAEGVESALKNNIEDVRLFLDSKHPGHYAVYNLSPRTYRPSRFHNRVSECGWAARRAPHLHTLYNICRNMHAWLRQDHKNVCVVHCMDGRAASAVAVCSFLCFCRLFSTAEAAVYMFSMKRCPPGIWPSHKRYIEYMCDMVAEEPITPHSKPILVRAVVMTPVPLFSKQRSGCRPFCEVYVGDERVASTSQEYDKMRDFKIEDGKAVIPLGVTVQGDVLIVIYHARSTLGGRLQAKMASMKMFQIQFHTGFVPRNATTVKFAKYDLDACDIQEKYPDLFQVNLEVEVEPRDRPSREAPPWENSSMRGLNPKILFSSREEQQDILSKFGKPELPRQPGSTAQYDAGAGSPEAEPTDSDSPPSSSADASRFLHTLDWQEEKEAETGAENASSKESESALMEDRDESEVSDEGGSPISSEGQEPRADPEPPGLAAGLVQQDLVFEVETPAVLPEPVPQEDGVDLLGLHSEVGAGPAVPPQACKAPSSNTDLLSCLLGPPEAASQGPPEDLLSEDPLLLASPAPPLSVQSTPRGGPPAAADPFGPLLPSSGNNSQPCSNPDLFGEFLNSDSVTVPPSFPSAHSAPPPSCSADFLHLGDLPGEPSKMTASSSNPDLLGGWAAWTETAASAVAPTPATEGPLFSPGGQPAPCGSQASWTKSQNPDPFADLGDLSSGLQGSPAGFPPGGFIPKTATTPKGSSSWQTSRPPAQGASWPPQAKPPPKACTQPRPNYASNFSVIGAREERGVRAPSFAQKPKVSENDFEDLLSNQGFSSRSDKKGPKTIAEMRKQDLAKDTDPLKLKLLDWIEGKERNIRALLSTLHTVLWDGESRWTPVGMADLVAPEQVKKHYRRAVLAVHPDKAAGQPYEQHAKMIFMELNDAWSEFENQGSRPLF

NS(=O)(=O)c1cc(NC(=O)C2(c3ccccc3Cl)CC2)ccc1Oc1cccc(Cl)c1 [BAY-207]
inactive: residual activity [1] 79% | residual activity [2] 76% | residual activity [3] 100% | residual activity [4] 100% | residual activity [5] 71% | inhibition [6] 0.09% | residual activity [7] 100% | residual activity [8] 84% | residual activity [9] 70% | residual activity [10] 90% | residual activity [11] 98% | residual activity [12] 86% | inhibition [13] 17.9% | residual activity [14] 89% | residual activity [15] 77% | residual activity [16] 93% | residual activity [17] 91% | residual activity [18] 83% | residual activity [19] 100% | residual activity [20] 93% | residual activity [21] 100% | residual activity [22] 79% | residual activity [23] 100% | residual activity [24] 100% | residual activity [25] 100% | residual activity [26] 78% | residual activity [27] 93% | residual activity [28] 100% | residual activity [29] 87% | residual activity [30] 100% | residual activity [31] 95% | residual activity [32] 89% | residual activity [33] 74% | residual activity [34] 73% | residual activity [35] 93% | residual activity [36] 79% | residual activity [37] 100% | residual activity [38] 79% | residual activity [39] 71% | residual activity [40] 100% | residual activity [41] 100% | residual activity [42] 100% | residual activity [43] 100% | residual activity [44] 88% | residual activity [45] 93%

NS(=O)(=O)c1cc(NC(=O)Cc2ccccc2)ccc1Oc1cccc(Cl)c1 [BAY-1797]
inactive: residual activity [1] 73% | residual activity [2] 99% | residual activity [3] 100% | residual activity [4] 53% | residual activity [5] 62% | inhibition [6] -3.13% | residual activity [7] 84% | residual activity [8] 100% | residual activity [9] 96% | residual activity [10] 89% | residual activity [11] 88% | residual activity [12] 100% | inhibition [13] -0.53% | residual activity [14] 54% | residual activity [15] 91% | residual activity [16] 81% | residual activity [17] 79% | residual activity [18] 99% | residual activity [19] 98% | residual activity [20] 82% | residual activity [21] 96% | residual activity [22] 88% | residual activity [23] 100% | residual activity [24] 100% | residual activity [25] 84% | residual activity [26] 92% | residual activity [27] 73% | residual activity [28] 100% | residual activity [29] 92% | residual activity [30] 73% | residual activity [31] 100% | residual activity [32] 91% | residual activity [33] 87% | residual activity [34] 87% | residual activity [35] 86% | residual activity [36] 87% | residual activity [37] 92% | residual activity [38] 85% | residual activity [39] 72% | residual activity [40] 62% | residual activity [41] 84% | residual activity [42] 66% | residual activity [43] 90% | residual activity [44] 62% | residual activity [45] 94%
